The nature of series [1]: Assay for NXL-104 and related substances (reverse phase gradient HPLC, UV 195 nm) on stored samples. The class given is physicochemical. The note with it: vial at 25° C./60% RH. As to the method: Assay for NXL-104 and Related Substances
NXL-104 and related substances in compositions comprising trans-7-oxo-6-(sulphooxy)-1,6-diazabicyclo[3,2,1]octane-2-carboxamide sodium salt were determined by a reverse phase gradient HPLC method with UV detection at 195 nm.
(§1) The following parameters were used for analysis:
(§2) Column: Inertsil ODS-3, 250 mm×4.6 mm, 5 μm
Mobile Phase A: 100 mM KH2PO4 Solution
Mobile Phase B: Acetonitrile: Water, [50:50 (v:v)]
(§3) Column Temperature: 25° C.
Autosampler Temperature: 5° C.
(§4) Detector/Setting: UV/195 nm
Run Time: about 25 minutes
Injector Washing Solution: Acetonitrile:Water, [10:90 (v:v)]
Approximate relative retention times (RRT) values for trans-7-oxo-6-(sulphooxy)-1,6-diazabicyclo[3,2,1]octane-2-carboxamide sodium salt and disulfate were 1.00 and 0.37.
The stability of amorphous trans-7-oxo-6-(sulphooxy)-1,6-diazabicyclo[3,2,1]octane-2-carboxamide sodium salt stored in a vial stored at 25° C. with a relative humidity of 60% (25° C./60% RH) was evaluated using the NXL-104 assay described above.
NXL-104 and related substances were measured according to the assay described in Example 6.

Series [2] is described as follows: Decarbonyl degradation product of NXL-104 (reverse phase gradient HPLC, UV 195 nm). It is filed as physicochemical. The note with it: vial at 25° C./60% RH. On the procedure:
The decarbonyl degradation product of trans-7-oxo-6-(sulphooxy)-1,6-diazabicyclo[3,2,1]octane-2-carboxamide sodium salt was determined by a reverse phase gradient HPLC method with UV detection at 195 nm.
as §1, §2
Mobile Phase A: Deionized Water
Mobile Phase B: 50 mM KH2PO4 solution: Acetonitrile, [50:50 (v:v)]
as §3, §4
Run Time (Approximate): 35 minutes
Injector Washing Solution: Acetonitrile:Water, [50:50 (v:v)] (Recommended)
Approximate relative retention time (RRT) for decarbonyl was 0.17.

The nature of another series: pH of stability samples. The class given is physicochemical. Particulars: vial at 25° C./60% RH.
The nature of series [3]: Phase I study, safety and tolerability. The class given is in vivo, healthy male and female subjects. Particulars: healthy subjects, IV. As to the method:
(§5) A single center, two-part randomized Phase I Study was conducted to evaluate the safety, tolerability, and pharmacokinetics of single and multiple intravenous doses of ceftaroline fosamil and NXL-104 in healthy male and female subjects, aged 18 through 45 years.
(§6) Part A was an open-label, 3-way crossover, single-dose study to evaluate the safety, tolerability, and pharmacokinetics of ceftaroline and NXL-104 following co-administration of a single intravenous (IV) dose of ceftaroline fosamil and NXL-104 in 12 healthy subjects.
The following procedures were performed and recorded at screening: • Collect blood samples for serology testing, hematology evaluation (including CBC, prothrombin time and international normalized ratio [PT/INR], partial thromboplastin time [PTT], free hemoglobin, haptoglobin, and reticulocyte count), and comprehensive metabolic panel • Collect urine for UA (including urine microscopy) and for drugs-of-abuse screen • Perform β-HCG serum pregnancy test (female subjects only) • Calculate CrCl and BMI • Assess vital signs • Perform 12-lead ECG • Perform complete physical examination • Assess prior medications • Record medical and surgical history • Record any spontaneously reported AE or SAE between signing of informed consent and Day —1 for subjects who comply with all screening processes […]

A short description of series [4]: Phase I study Part A, single IV dose, plasma pharmacokinetics. It is filed as in vivo, healthy male and female subjects. The note with it: for pharmacokinetic interaction between ceftaroline fosamil and NXL-104: Phase I Part A, single 600 mg IV doses alone or concomitant; for half-life / AUC(0-inf) / Cmax / T1/2: Geo mean; for Tmax: Median. As to the method: as §5, §6
Treatment A: single dose of 600 mg ceftaroline fosamil via IV infusion over one hour.
Treatment B: single dose of 600 mg NXL-104 via IV infusion over one hour.
Treatment C: single dose of 600 mg ceftaroline fosamil and 600 mg NXL-104 via concomitant IV infusion over one hour.
Blood samples were collected at the following times to determine ceftaroline, ceftaroline fosamil, ceftaroline M-1 (metabolite of ceftaroline fosamil), and NXL-104 free-acid plasma concentrations.
Days 1 (Period I), 6 (Period II), and 11 (Period III): in each study period immediately before (within 15 minutes) the start of infusion and after the start of study drug infusion at 20, 40, 60 (immediately before the end of study-drug infusion), 65, and 75 minutes and at 1.5, 2, 3, 4, 6, 8, 12, 18, 24, 36, and 48 hours
The principal parameters describing the pharmacokinetics of ceftaroline, ceftaroline fosamil, ceftaroline M-1 (metabolite of ceftaroline fosamil), and NXL-104 were derived from plasma concentrations using noncompartmental analysis with the software program WinNonlin. Plasma concentrations below the limit of quantification were treated as zero for all PK calculations. The actual sampling times were used in the calculations of PK parameters.
The following PK parameters were determined for ceftaroline, ceftaroline ceftaroline M-1, and NXL-104 free acid: AUC0-t and area under the plasma concentration versus time curve from time zero to infinity (AUC0-∞), Cmax, time of maximum plasma concentration (Tmax), CL, volume of distribution (VA and steady-state volume of distribution (Vss). Minimum plasma concentration (Cmin), accumulation ratio (Rac), and area under the plasma concentration versus time curve during the dosing interval, τ, (AUC0-τ) will be determined following multiple-dose administration.
Because all doses of ceftaroline are expressed in terms of anhydrous, acetate-free ceftaroline fosamil (ceftaroline prodrug, molecular weight=684.68), the following corrections were made to the dose when calculating PK parameters that include doses for ceftaroline (molecular weight=604.70) and ceftaroline M-1 (molecular weight=622.72): Ceftaroline dose=0.883×ceftaroline fosamil dose Ceftaroline M-1 dose=0.909×ceftaroline fosamil dose
The Cmax of ceftaroline, ceftaroline fosamil, ceftaroline M-1, and NXL-104 free acid was determined observationally as the peak concentration for each subject. Tmax was determined as the time corresponding to Cmax.
Area under the plasma concentration versus time curve up to the time corresponding to the last measurable concentration (AUC0-t) was calculated by numeric integration using the linear trapezoidal rule as follows:
Estimates of T1/2 were calculated using the following equation: T1/2=0.693/λz
The AUC0-∞ was calculated according to the following equation: AUC0-∞=AUC0-t+Clast/λz
CL was calculated with the following equation: CL=Doseiv/AUC0-∞
Vz based on the terminal phase was determined as: Vz=Doseiv/λz×AUC0-∞
In part A, PK parameters were compared by analysis of variance using SAS version 9.1.3 on a UNIX operating system. A general linear model with sequence, subject within sequence, treatment, and period as factors was used as the basis for the analysis. […]

Where [5] appears, read: both sexes, human, plasma, iv, 600 mg, Treatment 600 mg Ceftaroline fosamil.
Where [6] appears, read: both sexes, human, plasma, iv, 600 mg, Treatment 600 mg Ceftaroline fosamil, read-out: AUC0-inf.
Setting [7] is: both sexes, human, plasma, iv, 600 mg, Treatment 600 mg Ceftaroline fosamil, read-out: Cmax.
Where [8] appears, read: both sexes, human, plasma, iv, 600 mg, Treatment 600 mg NXL-104 + Ceftaroline fosamil 600 mg.
[9] abbreviates: both sexes, human, plasma, iv, 600 mg, Treatment 600 mg NXL-104 + Ceftaroline fosamil 600 mg, read-out: AUC0-inf.
Setting [10] is: both sexes, human, plasma, iv, 600 mg, Treatment 600 mg NXL-104 + Ceftaroline fosamil 600 mg, read-out: Cmax.
Where [11] appears, read: both sexes, human, plasma, iv, Treatment 600 mg Ceftaroline fosamil, read-out: Tmax.
The mark [12] stands for this setting: Treatment 600 mg Ceftaroline fosamil.
Where [13] appears, read: Treatment 600 mg NXL-104 + Ceftaroline fosamil 600 mg.

Like-named read-outs stand apart in the source and are kept apart here.

Consider `NC(=O)[C@@H]1CC[C@@H]2CN1C(=O)N2OS(=O)(=O)[O-].[Na+]` [amorphous NXL-104, trans-7-oxo-6-(sulphooxy)-1,6-diazabicyclo[3,2,1]octane-2-carboxamide sodium salt], for which the Disulfate in series [1] (1 month) is 0.19%; in series [1] (3 months), 0.17%; in series [1] (6 months) it was 0.17%; in series [1] (Initial), 0.19%. Moreover, the NXL-104 % in series [1] (1 month) stood at 111.3%; in series [1] (3 months) it was 108.0%; in series [1] (6 months) it was 106.1%; in series [1] (Initial), 106.4%. The “Total Impurities, NXL-104 related” value in series [1] (1 month) stood at 0.89%; in series [1] (3 months), 0.92%; in series [1] (6 months), 0.87%; in series [1] (Initial) it was 0.90%. Further, the Decarbonyl in series [2] (1 month) was determined as 0.46%; in series [2] (3 months) it was 0.48%; in series [2] (6 months), 0.33%; in series [2] (Initial), 0.63%. Moreover, the pH was 7.3 in the series “pH of stability samples” (1 month), 7.2 in the series “pH of stability samples” (3 months), 7.3 in the series “pH of stability samples” (6 months) and 7.0 in “pH of stability samples” (Initial).
Turning to `CCO/N=C(\C(=O)N[C@@H]1C(=O)N2C(C(=O)[O-])=C(Sc3nc(-c4cc[n+](C)cc4)cs3)CS[C@H]12)c1nsc(NP(=O)(O)O)n1` [ceftaroline fosamil, (6R,7R)-7-{(2Z)-2-(ethoxyimino)-2-[5-(phosphonoamino)-1,2,4-thiadiazol-3-yl]acetamido}-3-{[4-(1-methylpyridin-1-ium-4-yl)-1,3-thiazol-2-yl]sulfanyl}-8-oxo-5-thia-1-azabicyclo[4.2.0]oct-2-ene-2-carboxylate], the safety entry in series [3] is recorded as “no safety concerns”. The “pharmacokinetic interaction between ceftaroline fosamil and NXL-104” value in series [4] is “no pharmacokinetic interactions”. For the same compound, the half-life is 0.084 h in series [4] (setting [5]) and 0.055 h in series [4] (setting [8]). The AUC(0-inf) in series [4] (setting [6]) is 2170 ng·h/mL; in series [4] (setting [9]), 2160 ng·h/mL. Moreover, the Cmax in series [4] (setting [7]) was 2110 ng/mL; in series [4] (setting [10]), 2370 ng/mL. For the same compound, in series [4] (setting [11]), the Tmax came out at 0.67 h.
`CCO/N=C(\C(=O)N[C@H](C(=O)[O-])[C@@H]1NC(C(=O)[O-])=C(Sc2nc(-c3cc[n+](C)cc3)cs2)CS1)c1nsc(N)n1.[H+]` [Ceftaroline M-1]: in series [4] (setting [12]), the AUC(0-inf) amounted to 16420 ng·h/mL, the maximum concentration (Cmax) is 3290 ng/mL, the T1/2 came to 3.75 h and the Tmax turned out to be 1.08 h. In addition, in series [4] (setting [13]), the AUC(0-inf) stood at 15780 ng·h/mL, the Cmax was found to be 3210 ng/mL, the T1/2 was found to be 3.78 h and the Tmax was determined as 1.04 h.
Turning to `CCO/N=C(\C(=O)N[C@@H]1C(=O)N2C(C(=O)[O-])=C(Sc3nc(-c4cc[n+](C)cc4)cs3)CS[C@H]12)c1nsc(N)n1` [Ceftaroline], the half-life in series [4] (setting [5]) was 2.51 h; in series [4] (setting [8]) it was 2.47 h. The AUC(0-inf) was 61000 ng·h/mL in series [4] (setting [6]) and 60000 ng·h/mL in series [4] (setting [9]). The Cmax worked out at 24800 ng/mL in series [4] (setting [7]) and 26700 ng/mL in series [4] (setting [10]). Moreover, in series [4] (setting [11]), the Tmax was 1 h.
With `NC(=O)[C@@H]1CC[C@@H]2CN1C(=O)N2OS(=O)(=O)[O-].[Na+]` [NXL-104, trans-7-oxo-6-(sulphooxy)-1,6-diazabicyclo[3,2,1]octane-2-carboxamide sodium salt], the safety entry in series [3] is “no safety concerns”. Further, the “pharmacokinetic interaction between ceftaroline fosamil and NXL-104” value in series [4] is given as “no pharmacokinetic interactions”. The half-life in series [4] (setting [8]) is 1.63 h; in series [4] (both sexes, human, plasma, iv, 600 mg, Treatment 600 mg NXL-104), 1.64 h. Also, the AUC(0-inf) in series [4] (setting [9]) is 51200 ng·h/mL; in series [4] (both sexes, human, plasma, iv, 600 mg, Treatment 600 mg NXL-104, read-out: AUC0-inf) it was 51900 ng·h/mL. For the same compound, the Cmax in series [4] (setting [10]) amounted to 29100 ng/mL; in series [4] (both sexes, human, plasma, iv, 600 mg, Treatment 600 mg NXL-104, read-out: Cmax), 29500 ng/mL. In addition, in series [4] (both sexes, human, plasma, iv, Treatment 600 mg NXL-104, read-out: Tmax), the Tmax came to 1 h.

A word on the half-life: it is the time needed for the level to fall by half in the phase considered. What is called Cmax is the highest concentration seen after dosing. A word on the Tmax: it is the time at which the peak concentration occurs.
